Assay [1] addresses T1, 5-hydroxytryptamine receptor 3A (Homo sapiens, UniProt P46098).
T1 sequence (P46098 whole entry): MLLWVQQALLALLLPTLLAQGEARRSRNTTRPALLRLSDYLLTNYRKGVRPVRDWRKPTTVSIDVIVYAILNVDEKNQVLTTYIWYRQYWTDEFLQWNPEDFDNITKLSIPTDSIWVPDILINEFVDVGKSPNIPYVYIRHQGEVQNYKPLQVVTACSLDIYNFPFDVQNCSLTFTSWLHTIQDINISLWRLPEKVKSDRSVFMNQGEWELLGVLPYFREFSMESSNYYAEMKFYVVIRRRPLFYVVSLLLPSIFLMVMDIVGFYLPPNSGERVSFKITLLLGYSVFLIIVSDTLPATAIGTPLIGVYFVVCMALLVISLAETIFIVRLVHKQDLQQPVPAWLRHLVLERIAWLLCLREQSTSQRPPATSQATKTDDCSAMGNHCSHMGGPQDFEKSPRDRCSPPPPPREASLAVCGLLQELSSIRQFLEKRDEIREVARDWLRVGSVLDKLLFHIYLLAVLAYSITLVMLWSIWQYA
Put plainly: Binding affinity for 5-hydroxytryptamine 3 receptor by displacement of [3H]-BRL 43694 from NG-108-15 cell membranes. (In general: Displacement assays read how much labelled ligand stays bound in the presence of the test substance.)

The target in assay [2] is 5-hydroxytryptamine receptor 4 (Cavia porcellus, UniProt O70528). As to the kind of experiment: Binding affinity for 5-hydroxytryptamine 4 receptor by displacement of [3H]GR-113808 from guinea pig brain striatum.
The target in assay [3] is T1, 5-hydroxytryptamine receptor 3A. Put plainly: Binding affinity for 5-hydroxytryptamine 3 receptor by displacement of [3H](R)-zacopride from ondansetron-treated NG-108-15 cell membranes.
Assay [4] addresses T2, Serotonin 3 (5-HT3) receptor (Rattus norvegicus, UniProt P35563+Q9JJ16).
T2 sequence (P35563 whole entry): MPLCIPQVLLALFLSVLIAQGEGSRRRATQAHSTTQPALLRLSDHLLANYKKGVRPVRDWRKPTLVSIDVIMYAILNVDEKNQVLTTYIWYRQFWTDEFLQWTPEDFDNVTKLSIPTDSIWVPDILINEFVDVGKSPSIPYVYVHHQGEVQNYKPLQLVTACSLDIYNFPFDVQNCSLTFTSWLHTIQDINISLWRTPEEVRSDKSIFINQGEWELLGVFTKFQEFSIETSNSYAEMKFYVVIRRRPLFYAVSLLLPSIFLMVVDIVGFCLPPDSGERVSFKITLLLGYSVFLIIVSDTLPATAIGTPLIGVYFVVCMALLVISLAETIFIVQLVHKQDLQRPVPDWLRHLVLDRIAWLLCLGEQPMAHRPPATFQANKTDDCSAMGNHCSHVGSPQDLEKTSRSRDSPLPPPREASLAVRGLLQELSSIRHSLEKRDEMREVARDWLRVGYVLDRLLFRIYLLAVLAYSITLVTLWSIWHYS
T2 sequence (Q9JJ16 whole entry): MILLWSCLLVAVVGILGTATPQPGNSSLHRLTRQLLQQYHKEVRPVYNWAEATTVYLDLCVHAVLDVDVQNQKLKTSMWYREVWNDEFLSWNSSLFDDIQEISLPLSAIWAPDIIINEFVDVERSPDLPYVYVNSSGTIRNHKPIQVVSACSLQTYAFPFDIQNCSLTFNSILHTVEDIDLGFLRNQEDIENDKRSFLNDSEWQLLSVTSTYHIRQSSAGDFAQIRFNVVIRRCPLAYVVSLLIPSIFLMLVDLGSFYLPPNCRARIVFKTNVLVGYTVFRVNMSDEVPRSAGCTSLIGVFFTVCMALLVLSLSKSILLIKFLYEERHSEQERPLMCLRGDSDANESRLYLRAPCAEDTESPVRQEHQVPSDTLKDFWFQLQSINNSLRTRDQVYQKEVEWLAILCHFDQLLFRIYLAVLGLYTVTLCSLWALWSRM
Put plainly: Binding affinity for 5-hydroxytryptamine 3 receptor by displacement of racemic [3H]zacopride from rat cortex.

Each structure is given as a SMILES string.

5-hydroxytryptamine receptor 4, sequence (O70528 whole entry): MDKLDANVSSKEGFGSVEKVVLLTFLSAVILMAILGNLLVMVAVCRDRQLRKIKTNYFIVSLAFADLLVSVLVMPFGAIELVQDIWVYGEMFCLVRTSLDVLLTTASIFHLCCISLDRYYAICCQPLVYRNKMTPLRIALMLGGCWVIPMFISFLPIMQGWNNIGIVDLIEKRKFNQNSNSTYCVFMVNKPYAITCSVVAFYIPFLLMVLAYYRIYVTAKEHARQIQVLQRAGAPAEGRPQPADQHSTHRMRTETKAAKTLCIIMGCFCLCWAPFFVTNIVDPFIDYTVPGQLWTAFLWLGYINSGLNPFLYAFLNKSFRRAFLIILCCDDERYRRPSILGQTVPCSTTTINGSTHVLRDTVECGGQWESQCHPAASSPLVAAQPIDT

For orientation: Ki means a measure of affinity in units of concentration, obtained from inhibition or displacement. For the compound `CC(C)n1cnc2c(C(=O)NC3CC4CCC(C3)N4C)cc(Cl)cc21` (configuration not stated), the inhibitory constant (Ki) in assay [1] is 0.001 µM; in assay [2], 0.158 µM; in assay [3], 0.02 µM.
On to `CC(C)n1cnc2c(C(=O)N[C@H]3CN4CCC3CC4)cc(Cl)cc21`, for which the Ki in assay [2] is 0.024 µM.
As to `COc1cc(N)c(Cl)cc1C(=O)N[C@@H]1CN2CCC1CC2`, the Ki in assay [2] is 0.437 µM.
With `COc1cc(N)c(Cl)cc1C(=O)N[C@H]1CN2CCC1CC2` [(R)ZACOPRIDE], the figures for the Ki in assay [4] and in assay [2] were 0.00372 µM and 2.82 µM, respectively.
